Holding throughout (type): cell-based
What all share (conditions): for Emax at 10 µM: CV-1, maximal response relative to all-trans-retinoic acid at 10^−5 M, read-out: Efficacy

One test addresses T1, RXRα (Homo sapiens, UniProt P19793).
T1 construct: The first plasmid contains a retinoid receptor cDNA and directs constitutive expression of the encoded receptor; expressed in transfected cells; host or cells: CV-1 (monkey kidney)
T1 sequence (P19793 1-462): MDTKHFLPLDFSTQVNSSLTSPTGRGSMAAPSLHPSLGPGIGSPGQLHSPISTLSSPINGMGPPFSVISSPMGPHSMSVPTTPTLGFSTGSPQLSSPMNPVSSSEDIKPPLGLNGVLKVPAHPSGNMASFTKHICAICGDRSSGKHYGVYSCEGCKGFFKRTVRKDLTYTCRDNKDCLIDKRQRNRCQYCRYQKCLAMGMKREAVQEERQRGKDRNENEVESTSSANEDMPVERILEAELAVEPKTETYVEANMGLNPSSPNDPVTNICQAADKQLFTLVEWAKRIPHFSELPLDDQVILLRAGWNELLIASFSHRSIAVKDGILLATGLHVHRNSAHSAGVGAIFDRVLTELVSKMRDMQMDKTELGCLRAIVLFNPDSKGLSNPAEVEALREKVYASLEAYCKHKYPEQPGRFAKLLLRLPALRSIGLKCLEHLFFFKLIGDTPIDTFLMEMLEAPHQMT
Nature of the test: Co-transfection (cis-trans) assay in CV-1 cells, RXRα. On the set-up: Emax: dose or concentration left out as unconfirmed. From the text:
(§1) The co-transfection assay provides a mechanism to evaluate the ability of a compound to modulate the transcription response initiated by an intracellular receptor. […] Berger, et al., J. Steroid Biochem Molec.
(§2) Briefly, the co-transfection assay involves the introduction of two plasmids by transient transfection into a retinoid receptor-negative mammalian cell background. The first plasmid contains a retinoid receptor cDNA and directs constitutive expression of the encoded receptor. The second plasmid contains a cDNA that encodes for a readily quantifiable protein, e.g., firefly luciferase or chloramphenicol acetyl transferase (CAT), under control of a promoter containing a retinoid acid response element, which confers retinoid dependence on the transcription of the reporter. In this co-transfection assay, all retinoid receptors respond to all-trans-retinoic acid in a similar fashion. This assay can be used to accurately measure efficacy and potency of retinoic acid and synthetic retinoids as ligands that interact with the individual retinoid receptor subtypes.
(§3) Accordingly, synthetic retinoid compounds of the current invention were evaluated for their interaction with retinoid receptor subtypes using the co-transfection assay in which CV-1 cells were co-transfected with one of the retinoid receptor subtypes, a reporter construct, and an internal control to allow normalization of the response for transfection efficiency. The following example is illustrative.
(§4) Retinoids: All-tans-retinoic acid (RA) and 13-cis-retinoic acid (13-cis-RA) were obtained from Sigma. […] Retinoids were dissolved in dimethylsulfoxide for use in the transcriptional activation assays.
(§5) Co-transfection Assay In CV-1 Cells: A monkey kidney cell line, CV-1, was used in the cis-trans assay. Cells were transfected with two plasmids. […] The cis-vector contains an easily assayable gene product, in this case the firefly luciferase, coupled to a retinoid-responsive promoter, i.e., an RARE or RXRE. Addition of retinoic acid or an appropriate synthetic retinoid results in the formation of a retinoid-RAR or -RXR complex that activates the expression of luciferase gene, causing light to be emitted from cell extracts. The level of luciferase activity is directly proportional to the effectiveness of the retinoid-receptor complex in activating gene expression. This sensitive and reproducible co-transfection approach permits the identification of retinoids that interact with the different receptor isoforms.
(§6) Cells were cultured in DMEM supplemented with 10% charcoal resin-stripped fetal bovine serum, and experiments were conducted in 96-well plates. […] Cells were transfected for 6 h and then washed to remove the precipitate. The cells were then incubated for 36 h with or without retinoid. After the transfection, all subsequent steps were performed on a Beckman Biomek Automated Workstation. […] All determinations were performed in triplicate in two independent experiments and were normalized for transfection efficiency by using β-galactosidase as the internal control. […] Efficacy values less than 5% are not statistically different than the 0% background.

In a further test the target is T2, RXRβ (Mus musculus, UniProt P28704).
T2 construct: expressed in transfected cells; host or cells: CV-1 (monkey kidney)
T2 sequence (P28704 1-520): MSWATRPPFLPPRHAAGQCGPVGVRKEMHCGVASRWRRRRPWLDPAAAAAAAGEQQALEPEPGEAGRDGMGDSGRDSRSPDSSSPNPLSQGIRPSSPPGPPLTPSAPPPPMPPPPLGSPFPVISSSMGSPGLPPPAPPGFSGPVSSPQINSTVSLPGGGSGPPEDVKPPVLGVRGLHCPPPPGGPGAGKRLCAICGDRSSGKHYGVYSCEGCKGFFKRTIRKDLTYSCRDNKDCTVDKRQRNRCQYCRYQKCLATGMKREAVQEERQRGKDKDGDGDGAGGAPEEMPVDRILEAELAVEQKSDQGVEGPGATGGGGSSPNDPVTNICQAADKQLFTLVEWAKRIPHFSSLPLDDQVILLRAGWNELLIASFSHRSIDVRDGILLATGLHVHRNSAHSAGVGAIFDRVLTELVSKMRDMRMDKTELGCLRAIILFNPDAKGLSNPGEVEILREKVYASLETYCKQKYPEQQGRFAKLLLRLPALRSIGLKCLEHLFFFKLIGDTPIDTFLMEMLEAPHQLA
The test is described as follows: Co-transfection (cis-trans) assay in CV-1 cells, RXRβ.
From the text: as §1, §2, §3, §4, §5, §6

The next test addresses T3, RXRγ (Mus musculus, UniProt P28705).
T3 construct: expressed in transfected cells; host or cells: CV-1 (monkey kidney)
T3 sequence (P28705 1-463): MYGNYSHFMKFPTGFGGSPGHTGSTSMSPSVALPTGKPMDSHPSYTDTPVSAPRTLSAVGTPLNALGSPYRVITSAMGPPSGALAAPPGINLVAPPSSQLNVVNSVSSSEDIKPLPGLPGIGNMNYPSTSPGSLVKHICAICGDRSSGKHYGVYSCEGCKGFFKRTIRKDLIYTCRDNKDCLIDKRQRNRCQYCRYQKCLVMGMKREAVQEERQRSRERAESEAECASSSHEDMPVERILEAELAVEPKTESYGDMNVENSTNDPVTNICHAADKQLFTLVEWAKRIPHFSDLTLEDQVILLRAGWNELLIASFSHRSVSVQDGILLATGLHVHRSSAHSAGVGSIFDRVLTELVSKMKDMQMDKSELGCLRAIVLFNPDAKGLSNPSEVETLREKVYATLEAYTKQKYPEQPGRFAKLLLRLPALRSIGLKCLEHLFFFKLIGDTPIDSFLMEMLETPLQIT
Nature of the test: Co-transfection (cis-trans) assay in CV-1 cells, RXRγ.
From the text: as §1, §2, §3, §4, §5, §6

Where [1] appears, read: RXRα, CV-1 cells, luciferase reporter, 36 h, read-out: Potency.
The mark [2] stands for this setting: RXRβ, CV-1 cells, luciferase reporter, 36 h, read-out: Potency.
[3] abbreviates: RXRγ, CV-1 cells, luciferase reporter, 36 h, read-out: Potency.

Where two headings read alike, the source gives them in different places.

As to `C=C(c1ccc(C(=O)O)cc1)c1cc2c(cc1Br)C(C)(C)CCC2(C)C` [3-Bromo-TTNEB, 4-[1-(3-bromo-5,5,8,8-tetramethyl-5,6,7,8-tetrahydro-2-naphthyl)ethenyl]benzoic acid], the EC50 on RXRα was 64 nM; at RXRβ it was 54 nM; on RXRγ, 52 nM. For the same molecule, the Emax at RXRα (CV-1, read-out: Efficacy) is 88%.
For the molecule `Cc1cc2c(cc1C(=O)c1ccc(C(=O)Nc3ccc(O)cc3)cc1)C(C)(C)CCC2(C)C` [3-Methyl-TTNCHBP, 4-[(3,5,5,8,8-pentamethyl-5,6,7,8-tetrahydro-2-naphthyl)carbonyl]-N-(4-hydroxyphenyl)benzamide], the Emax at 10 µM is 113% at RXRα (RXRα), 155% at RXRβ (RXRβ) and 128% at RXRγ (RXRγ). Also, the EC50 on RXRα (setting [1]) stood at 1100 nM; on RXRβ (setting [2]), 1100 nM; at RXRγ (setting [3]), 300 nM.
Take `C=C(c1ccc(C(=O)Nc2ccc(O)cc2)cc1)c1cc2c(cc1C)C(C)(C)CCC2(C)C` [3-Methyl-TTNEHBP (63), 4-[1-(3,5,5,8,8-pentamethyl-5,6,7,8-tetrahydro-2-naphthyl)ethenyl]-N-(4-hydroxyphenyl)benzamide]: the Emax at 10 µM at RXRα (RXRα) is 125%; at RXRβ (RXRβ), 121%; at RXRγ (RXRγ), 163%. Moreover, the EC50 at RXRα (setting [1]) came to 140 nM; on RXRβ (setting [2]), 71 nM; at RXRγ (setting [3]) it was 48 nM.
Turning to `CCCC(=C/C=C/C(C)=C/C(=O)O)/C=C/C1=C(C)CCCC1(C)C` [Compound 74, 3-methyl-7-propyl-9-(2,6,6-trimethyl-1-cyclohexen-1-yl)-2E,4E,6Z,8E-nonatetranoic acid], the Emax at 10 µM on RXRα (RXRα) was 78%; at RXRβ (RXRβ) it was 91%; at RXRγ (RXRγ), 85%. Further, the EC50 on RXRα (setting [1]) was 11 nM; on RXRβ (setting [2]), 6 nM; at RXRγ (setting [3]), 12 nM.
Consider `CC1=C(/C=C/C(=C\C=C\C(C)=C\C(=O)O)C(C)C)C(C)(C)CCC1` [Compound 75, 3-methyl-7-isopropyl-9-(2,6,6-trimethyl-1-cyclohexen-1-yl)-2E,4E,6Z,8E-nonatetranoic acid], for which the values for the Emax at 10 µM on RXRα (RXRα), at RXRβ (RXRβ) and on RXRγ (RXRγ) were 100%, 142% and 106%, respectively. The EC50 amounted to 21 nM on RXRα (setting [1]), 18 nM at RXRβ (setting [2]) and 11 nM on RXRγ (setting [3]).
As for `CC1=C(/C=C/C(=C\C=C\C(C)=C\C(=O)O)C(C)(C)C)C(C)(C)CCC1` [Compound 77, 3-methyl-7-t-butyl-9-(2,6,6-trimethyl-1-cyclohexen-1-yl)-2E,4E,6Z,8E-nonatetranoic acid], the figures for the Emax at 10 µM on RXRα (RXRα), on RXRβ (RXRβ) and at RXRγ (RXRγ) were 75%, 99% and 71%, respectively. Besides, the figures for the EC50 on RXRα (setting [1]), at RXRβ (setting [2]) and on RXRγ (setting [3]) were 16 nM, 11 nM and 9 nM, respectively.
In the case of `CC1=C(C=CC2CCCCC2/C=C/C(C)=C/C(=O)O)C(C)(C)CCC1` (stereo not shown) [Compound 100, 3-methyl-5-(2-[2-(2,6,6-trimethylcyclohexen-1-yl)ethenyl]cyclohexyl)-2E,4E-pentadienoic acid], the Emax at 10 µM on RXRα (RXRα) was 63%; at RXRβ (RXRβ), 54%; on RXRγ (RXRγ), 72%. Also, the EC50 on RXRα (setting [1]) was determined as 123 nM; on RXRβ (setting [2]) it was 71 nM; at RXRγ (setting [3]), 106 nM.
Take `CC(/C=C/C1(c2cc3c(cc2C)C(C)(C)CCC3(C)C)CC1)=C\C(=O)O` [Compound 104, (2E,4E)-3-methyl-5-[1-(3,5,5,8,8-pentamethyl-5,6,7,8-tetrahydro-2-naphthyl)cyclopropyl]penta-2,4-dienoic acid]: the Emax at 10 µM on RXRα (RXRα) was 75%; at RXRβ (RXRβ) it was 133%; at RXRγ (RXRγ), 85%. Further, the results for the EC50 on RXRα (setting [1]), on RXRβ (setting [2]) and on RXRγ (setting [3]) were 5 nM, 13 nM and 7 nM, respectively.
`CC1=C(/C=C/C2(C/C=C/C(C)=C/C(=O)O)CC2)C(C)(C)CCC1` [Compound 110]: the Emax at 10 µM on RXRα (RXRα) was determined as 79%; on RXRβ (RXRβ), 73%; at RXRγ (RXRγ), 87%. Also, the EC50 turned out to be 85 nM at RXRα (setting [1]), 70 nM at RXRβ (setting [2]) and 198 nM on RXRγ (setting [3]).
Regarding `CC(/C=C/C=C(\c1ccc2c(c1)C(C)(C)CCC2(C)C)C(C)C)=C\C(=O)O` [Compound 123, (2E,4E,6Z)-7-(5,5,8,8-tetramethyl-5,6,7,8-tetrahydro-2-naphthyl)-3,8-dimethyl-nona-2,4,6-trienoic acid], the Emax at 10 µM is 90% at RXRα (RXRα), 105% at RXRβ (RXRβ) and 97% at RXRγ (RXRγ). Also, the EC50 on RXRα (setting [1]) worked out at 24 nM; on RXRβ (setting [2]), 21 nM; at RXRγ (setting [3]), 24 nM.
Turning to `C/C(=C/C=C/C(C)=C/C(=O)O)c1cc2c(cc1C)C(C)(C)CCC2(C)C` [Compound 128, (2E,4E,6Z)-7-(3,5,5,8,8-pentamethyl-5,6,7,8-tetrahydro-2-naphthyl)-3-methyl-octa-2,4,6-trienoic acid], the Emax at 10 µM at RXRα (RXRα) came out at 108%; on RXRβ (RXRβ) it was 154%; on RXRγ (RXRγ), 115%. Also, the EC50 on RXRα (setting [1]) was 11 nM; at RXRβ (setting [2]), 22 nM; on RXRγ (setting [3]), 10 nM.

For the origin of these results see patent US6610883B1, “Compounds having selective activity for retinoid X receptors, and means for modulation of processes mediated by retinoid X receptors” (Ligand Pharmaceuticals, Inc., priority 1992, dated 2003).
